Laboratory results taken from patent US7671058B2, “N-(3,4-disubstituted phenyl) salicylamide derivatives” (Institute of Medicinal Molecular Design, Inc., priority 2006, dated 2010).
Read-outs that look alike come from different tables or passages of the source.

Assays:
[1] = test system: STAT6; test: STAT6 inhibition test: (GLS)x8/pTA-Luc luciferase reporter in U2-OS cells stimulated with human IL-4; type: cell-based; conditions: human IL-4 40 ng/mL; for Inhibition Rate of STAT6 (%) / inhibition at 2 µM: compound 2 μM, 8 hours; for IC50: from inhibition rates at 1, 0.1, 0.01 and 0.001 μM, read-out: IC50 against activation of STAT6; for inhibition at 2 µM: read-out: Inhibition Rate of STAT6 (%)
Text: (1) Construction of a STAT6 Reporter Plasmid
The Oligonucleotides (SEQ ID: 1, 2) containing two copies of STAT6 binding sequences (refer to J. Biol. Chem., vol. 276, No. 9, pp. 6675-6688 (2001).) were synthesized, and integrated into the enhancer region of the reporter plasmid pTA-Luc Vector (CLONTECH Laboratories, Inc.) at the restriction enzyme BgIII site.
When the oligonucleotide is integrated in positive direction into the plasmid, the upstream BglII site is not reconstructed. Therefore, STAT6 binding sequences can be increased by repeating integration of the oligonucleotide at the restriction enzyme BglII site.
In the present test, a plasmid including eight integrated STAT6 binding sequences was constructed and provided for the reporter assay as (GLS)x8/pTA-Luc. Confirmation of the sequences was carried out using an automated fluorescence sequencer (Model 310 (Applied Biosystems)).
(2) Transfection into U2-OS Cells and Inhibition Test for STAT6 Activation
U2-OS cells were seeded to at 2×10^4 cells/well in 96-well culture plates, and transfection was carried out using FuGENE 6 Transfection Reagent (Roche Diagnostics GmbH). The procedures of the transfection are shown below.
11 μg of reporter plasmid ((GLS)x8/pTA-Luc) and 1.1 μg of pCMV β (CLONTECH Laboratories, Inc.) were mixed in 1.1 mL of OPTI-MEM I medium (GIBCO BRL) (solution (A)).
33 μL of FuGENE 6 Transfection Reagent was mixed in 1.1 mL of OPTI-MEM I medium (solution (B)).
(§1) The above solution (A) and solution (B) were mixed, let them stand for 15 minutes at room temperature, then, 8.8 mL of OPTI-MEM I medium was added and diluted.
To this transfection solution, U2-OS cell suspension (11 mL) in McCoy's 5A medium (GIBCO BRL) containing 10% Fetal Bovine Serum (FBS; GIBCO BRL) at 2×10^5 cells/mL was added and well mixed.
(§2) 0.2 mL of the above solution was dispensed into each well of 96-well culture plates, and incubated for 24 hours (37° C., 5% CO2).
After removal of 50 μL of medium from each well, 50 μL of McCoy's 5A medium (serum-free) containing compound, of the present application was added to a final concentration of 0.01˜2 μM (0.001, 0.01, 0.1, 0.5, 1 or 2 μM), and the plates were incubated for 2 hours (37° C., 5% CO2).
10 μL of the McCoy's 5A medium (serum-free) containing human IL-4 (R&D Systems, Inc) was added to each well to achieve a final concentration of 40 ng/mL, and incubated for 8 hours (37° C., 5% CO2).
(§3) Medium was completely removed and plates were preserved at −80° C. until measurements.
(§4) Cell lysates were prepared by adding 40 μL of Passive Lysis Buffer (Promega Corporation) to each well.
(§5) 10 μL of each lysate was transferred to 96-well white plates. 50 μL of PicaGene L.T.2.0 (TOYO INK MFG. CO., LTD.) was added to each well, then, luminescence was measured after leaving for 10 minutes at room temperature.
(§6) 10 μL of each lysate was transferred to 96-well black plates. 100 μL of Z Buffer (preparation method will be explained later) was added to each well, and fluorescence was measured immediately.
(§7) 10 μL of each lysate was transferred to 96-well clear plates. 200 μL of protein assay reagent prepared from the BCA Protein Assay Kit (Pierce Biotechnology, Inc.) was added to each well, and, absorbance was measured after incubation for 30 minutes at 37° C.
(§8) For measurements of luminescence, fluorescence, and absorbance, microplate reader GENios (TECAN G.M.B.H.) was used.
(4) Calculation of Inhibition Rate
Luminescence values that show the degree of activation by IL-4 stimulation were normalized by β-gal values that show transfection efficiency. Using the normalized values, the following calculations were carried out using the luminescence values increased by IL-4 stimulation. Inhibition Rate(%)=[…] E: In the presence of the compound of the present application, increased luminescence value by IL-4 stimulation C: Without the presence of the compound of the present application, increased luminescence value by IL-4 stimulation […]

[2] = test system: NF-κB; test: NF-κB inhibition test: pNFκB-Luc luciferase reporter in U2-OS cells stimulated with human TNF α; type: cell-based; conditions: human TNF α 10 ng/mL; for Inhibition Rate of NF-κB (%) / inhibition at 2 µM: compound 2 μM, 8 hours; for IC50: from inhibition rates at 1, 0.1, 0.01 and 0.001 μM, read-out: IC50 against activation of NF-κB; for inhibition at 2 µM: read-out: Inhibition Rate of NF-κB (%)
Procedure: (1) Transfection to U2-OS Cells and Inhibition Test of Activation
U2-OS cells were seeded at 2×10^4 cells/well in 96-well culture plate, and transfection was carried out using FuGENE 6 Transfection Reagent (Roche Diagnostics GmbH). The procedures of the transfection are shown below.
11 μg of reporter plasmid (pNFκB-Luc; Stratagene Corporation) and 1.1 μg of pCMV β (CLONTECH Laboratories, Inc.) were mixed in 1.1 mL of OPTI-MEM I medium (GIBCO BRL) (solution (A)).
[…] of FuGENE 6 Transfection Reagent was mixed in 1.1 mL of OPTI-MEM I medium (solution (B)).
as §1
To this transfection solution, U2-OS cell suspension (11 mL) in McCoy's 5A medium (GIBCO BRL) containing 10% Fetal Bovine Serum (FBS; GIBCO BRL) at […] was added and well mixed.
as §2
After removal of 50 μL of medium from each well, 50 μL of McCoy's 5A medium (serum-free) containing compound of the present application was added to a final concentration of 0.01˜2 μM (0.001, 0.01, 0.1, 0.5, 1 or 2 μM), and the plates were incubated for 2 hours (37° C., 5% CO2).
10 μL of the McCoy's 5A medium (serum-free) containing human TNF α (PEPROTECH EC Ltd.) was added to each well to achieve a final concentration of 10 ng/mL, and incubated for 8 hours (37° C., 5% CO2).
as §3, §4, §5, §6, §7, §8
(3) Calculation of Inhibition Rate
Luminescence values that show the degree of activation by TNF α stimulation were normalized by β-gal values that show transfection efficiency. Using the normalized values, the following calculation was carried out using the luminescence values that increased by TNF α stimulation. Inhibition Rate(%)=[…] E: In the presence of the compound of the present application, increased luminescence values by TNF α stimulation C: Without the presence of the compound of the present application, increased luminescence values by TNF α, stimulation
The values of protein assay by BCA reagent were used for a simple assessment of cytotoxicity, and not used for the calculation of inhibition rates.
NF-κB Inhibition Rates are shown below. The values in parentheses in the table represent the concentration of the compound of the present application.
NF-κB inhibition rates where the concentrations of the compound of the present application were 1, 0.1, 0.01 and 0.001 μM were calculated, and the 50% inhibitory concentrations (IC50) of the compounds of the present application against activation of NF-κB were evaluated.

Compound	Inhibition Rate of STAT6 (%) [1]	Inhibition Rate of NF-κB (%) [2]	IC50 [1]	IC50 [2]	inhibition at 2 µM ([1]; U2OS)	IC50 ([1]; U2OS)	inhibition at 2 µM ([2]; U2OS)	IC50 ([2]; U2OS)
CN1CCN(c2ccc(NC(=O)c3cccc(Cl)c3O)cc2F)CC1.Cl [compound 60]	26 (2 μM) %	16 (2 μM) %						
Cc1cc(NC(=O)c2cc(Cl)ccc2O)ccc1OC1CCN(C)CC1 [compound 25]	80 (2 μM) %	60 (2 μM) %						
O=C(Nc1ccc(N2CCCCC2)c(Cl)c1)c1cc(Cl)ccc1O [compound 8]	93 (2 μM) %	61 (2 μM) %						
CC1CNCCN1c1ccc(NC(=O)c2cc(Cl)ccc2O)cc1F.Cl (stereo not drawn) [compound 88]	90 (2 μM) %	90 (2 μM) %	25.5 nM	21.9 nM				
O=C(Nc1ccc(N2CCNCC2)c(F)c1)c1cc(Cl)ccc1O [Compound 22]					85%	82.3 nM	82%	80.8 nM
O=C(Nc1ccc(OC2CCNCC2)c(F)c1)c1cc(Cl)ccc1O [compound 31]	93 (2 μM) %	92 (2 μM) %	6.37 nM	12.2 nM				
O=C(Nc1ccc(N2CCCCC2)c(F)c1)c1cc(Cl)ccc1O [compound 2]	90 (2 μM) %	77 (2 μM) %	58.1 nM	39.4 nM				
CN1CCC(COc2ccc(NC(=O)c3cc(Cl)ccc3O)cc2F)CC1 [compound 51]	83 (2 μM) %	86 (2 μM) %	9 nM	17.9 nM				
CCOc1cc(NC(=O)c2cc(Cl)ccc2O)ccc1N1CCCCC1 [compound 14]	56 (2 μM) %	60 (2 μM) %						
NC1CCN(c2ccc(NC(=O)c3cc(Cl)ccc3O)cc2F)CC1 [compound 66]	85 (2 μM) %	92 (2 μM) %	3.79 nM	9.74 nM				
O=C(Nc1ccc(N2CCCNCC2)c(F)c1)c1cc(Br)ccc1O [compound 87]	91 (2 μM) %	93 (2 μM) %	18.3 nM	11.7 nM				
CN1CCN(c2ccc(NC(=O)c3ccc(Cl)cc3O)cc2F)CC1.Cl [compound 61]	86 (2 μM) %	80 (2 μM) %						
O=C(Nc1ccc(C2CCNCC2)c(F)c1)c1cc(Cl)ccc1O [Compound 41]					78%		74%	
CN1CCN(c2ccc(NC(=O)c3cc(Br)ccc3O)cc2F)CC1 [compound 69]	79 (2 μM) %	76 (2 μM) %	10.6 nM	30.3 nM				
CN1CCC(Oc2ccc(NC(=O)c3cc(Cl)ccc3O)cc2F)C1 (stereo not drawn) [compound 38]	77 (2 μM) %	64 (2 μM) %						
Cl.NC1CCN(c2ccc(NC(=O)c3ccc(Cl)cc3O)cc2F)CC1 [compound 71]	92 (2 μM) %	94 (2 μM) %	3.36 nM	8.41 nM				
NC(=O)C1CCCN(c2ccc(NC(=O)c3cc(Cl)ccc3O)cc2F)C1 (stereo not drawn) [compound 48]	42 (2 μM) %	40 (2 μM) %						
O=C(Nc1ccc(N2CCCNCC2)c(F)c1)c1cc(Cl)ccc1O [compound 44]	94 (2 μM) %	94 (2 μM) %	7.51 nM	15.7 nM				
CN1CCN(c2ccc(NC(=O)c3cc(Cl)ccc3O)cc2Cl)CC1.Cl [compound 17]	96 (2 μM) %	90 (2 μM) %	82.9 nM	113 nM				
O=C(Nc1ccc(N2CCCNCC2)c(F)c1)c1ccc(Cl)cc1O [compound 80]	91 (2 μM) %	89 (2 μM) %	2.23 nM	8.11 nM				
CCC1CN(c2ccc(NC(=O)c3cc(Cl)ccc3O)cc2F)CCN1.Cl (stereo not drawn) [compound 72]	37 (2 μM) %	41 (2 μM) %						
